Reference: patent publication US11725204B2, “Multiplex genome engineering in eukaryotes” (priority 2016, dated 2023)

How the values were obtained:
Format in all cases: cell-based, S. cerevisiae
ADE2 [1] = assay: eMAGE allelic replacement frequency at Ori-URA3-ADE2 locus (5-FOA selection, red/white screening)
Procedure: A list of ssODNs used for FIGS. 1-4 in this study can be found in Table 2. For eMAGE experiments, a single colony was inoculated in 2 mL CSM-Ura medium and grown overnight to saturation. The next day the culture was diluted 1:50 in 10 mL of CSM-Ura and grown for 6 hours prior to electroporation. The ssODN concentration and size were determined from optimization experiments performed in Figure S2D,F. A total of 20 uM of 90nt ssODNs consisting of 50% selection ssODN 50% target ssODN(s) was used for eMAGE transformations. The optimal HU concentration was determined from figure S2A. The eMAGE pretreatment mixture contained 500 mM HU in TE pH 8/500 mM Lithium Acetate/25 mM DTT. Electroporation for eMAGE was performed exactly as described above. After 12 hours of recovery, ˜10^5 cells were plated on 5-FOA selection plates for msh2Δ and MMR mutant strains and ˜10^7 cells were plated for strains with WT MMR. The resultant 5-FOA plates contained ˜100 colonies which were subject to screening for target ssODN incorporation. The indicated ARF values represent mean+/−SD. All data sets were collected in triplicate. For the Rad51 chemical inhibitor experiment (Figure S1J) the recovery medium was supplemented with inhibitor RI-1 (Abcam ab144558)+1.5% DMSO for solubility.
Experiments were designed to determine if Rad51-dependent ssODN recombination and incorporation of ssODNs at the DNA replication fork are two distinct pathways in eukaryotes (FIG. 1A). Unlike the E. coli chromosome, the linear chromosomes of S. cerevisiae contain multiple firing origins of replication that confound the precise designation of the lagging strand at each locus (Raghuraman, et al., Science, 294:115-121 (2001); Wyrick, et al., Science, 294:2357-2360 (2001)). Sherman and colleagues observed high frequencies of co-transformation for two ssODNs targeted within a cyc1 mutant gene when one of the ssODNs included a selectable mutation (Yamamoto, et al., Yeast, 8:935-948 (1992a)). […] Experiments were designed to determine whether Sherman's observation could be expanded for ssODNs targeting multiple proximal genes by constructing an experimental locus on chromosome XV with a defined DNA replication direction by placing the URA3 gene proximal to the origin ARS1516 (Ori) directly adjacent to ADE2, which confers a colorimetric phenotype (WT=white; Mutant=red) (FIG. 1C). Cells were transformed with ssODNs targeting the predicted lagging strand of both URA3 and ADE2, and it was observed that ssODN-derived modifications at ADE2 were increased by >10^4-fold (ARF=22%) in URA3-edited (5-FOA resistant) clones (FIG. 1C). […]

[2] = tested on: target sites at increasing distances from the URA3 marker; assay: Target distance efficiency determination (red/white screening or colony PCR with EcoRI digestion); settings: +HU
Procedure: Target mutation distance is reported as the distance between the URA3 marker mutation incorporated by the selection-ssODN and the mutation incorporated by the target-ssODN. For target distances of 1 and 2 kb, ssODNs ADE290RC and ADE2_Mult10 were used within the ADE2 gene and the ARFs for these sites were determined by red/white phenotype screening. For targets at 5, 10, 15, and 20 kb distances from the Ori-URA3, target sites were chosen that differ by only a single base-pair from an EcoRI restriction site. The target ssODN was designed to incorporate a base-pair change to create the EcoRI restriction site. For each target assayed, 96 clones were analyzed by colony PCR (Primers for the amplicons analyzed are listed in Table 3) coupled to EcoRI (NEB) digestion of the amplicon for 1 hr at 37° C. The percentage of amplicons cut vs. uncut is represented as the ARF for each distance site. Each distance experiment was performed in triplicate+/−HU treatment. ARF values represent mean+/−SD.

ADE2 [3] = assay: Multiplex incorporation of ssODNs and cycling (colony PCR and Sanger sequencing); settings: 10-target multiplexing, with HU
Procedure: For multiplex eMAGE experiments targeting ADE2, red clones that grew on 5-FOA plates were assayed via yeast colony PCR and Sanger sequencing (Genewiz). Insertions were chosen for easy sequence detection since degenerate mismatches would contain WT sequence positions. For cycling experiments, cells were recovered in recovery media after electroporation as described above. After recovery, the population was subjected to liquid selection in 5-FOA for odd cycles and CSM-Ura for even numbered cycles to enrich for edited clones. Selections were performed for 500 uL of recovery culture seeded into 50 mL of selection medium and grown to saturation at 30° C. (˜2 days).
After the first 1:100 selection the population was diluted 1:50 in selection media and grown for 6 hours for the next electroporation step. The process was repeated for 3 cycles. A total of 100 red clones were sequenced after each cycle. For cycles 1 and 2, 200 unique genotypes were observed out of […], but for cycle 3, 76 unique genotypes were observed out of the 100 clones sequenced. Given that the degeneracy of the ssODN pool largely out-scales the number of clones assayed redundant genotypes would not be expected to arise for independent clones in any cycle assayed. The 24 redundant clones observed in cycle 3 were comprised of 5 genotypes. […]

URA3 = assay: Spontaneous URA3 mutations with transient HU treatment
Procedure: Experiments were designed to determine if transient treatment with HU would increase the efficiency for ssODN annealing at the replication fork. A 30 minute treatment with 500 mM HU increased the ARF by ˜two-fold compared to the untreated condition. Seven different ssODNs containing a single base-pair mismatch (ssODNs 1,2,5-7), insertion (ssODN #4), or deletion (ssODN #3) in ADE2 were tested and an average ARF increase of 56% (FIG. 2A) was observed. […] The effect of ssODN size and concentration was also tested. Robust cell survival post electroporation (85%) was tested for ssODN concentrations up to 20 uM, which decreased to 45% at 80 uM ssODN. The efficiency of URA3 single-plex targeting increased with increasing ssODN size and concentration with the highest ARF observed (0.08%) for 100nt ssODN at 60 uM. For coupled ADE2-URA3 targeting an optimum ade2 mutant per 5-FOA CFU was determined using a 90nt ssODN at 20 uM. For all subsequent experiments 90nt ssODNs at 20 uM were used.

SMILES | increase of ARF compared to the untreated condition (ADE2 [1]; 30 minute treatment with 500 mM HU) | HU effect on ARF with HIS3 selection marker (ADE2 [1]; HIS3 selection marker in replace of URA3) | average ARF increase (ADE2 [1]; HU treatment, seven ssODNs with single base-pair mismatch, insertion or deletion in ADE2) | ARF vs target distance curve fit, Y0 ([2]; one-phase decay Y=(Y0−Z)*exp(−K*X)+Z) | ARF vs target distance curve fit, K ([2]; one-phase decay fit) | ARF vs target distance curve fit, Z ([2]; one-phase decay fit) | multiplex enhancement of ssODN incorporation (ADE2 [3]; WT) | mean number of ssODNs incorporated (ADE2 [3]; msh2Δ) | spontaneous URA3 mutations (URA3) | ARF change with Rad51 inhibitor (ADE2 [1]; recovery medium supplemented with RI-1 + 1.5% DMSO)
NC(=O)NO [HU, Hydroxyurea] | two-fold | HU effect was also observed | 56% | 49.6 | 0.279 | 2.25 | no multiplex enhancement | 3.4 per clone | no significant increase | 
O=C1C(Cl)=C(N2CCOCC2)C(=O)N1c1ccc(Cl)c(Cl)c1 [RI-1] |  |  |  |  |  |  |  |  |  | ARF enhancement was observed
